Measured values taken from patent US5877166A, “Enantiomerically pure 2-aminopurine phosphonate nucleotide analogs as antiviral agents” (priority 1997, dated 1999).
Values after ≈ are worked out from the molar mass of the structure shown. Where two headings read alike, the source gives them in different places.

How the values were obtained:
murine cytomegalovirus = assay: Activity against a murine cytomegalovirus infection in normal BALB/c mice; format: in vivo
Protocol: Activities of 1-5 and 1-6
Against a murine cytomegalovirus infection
^a Treatments were given once daily for 5 days starting 24 hours afte

[1] = Toxicity to uninfected BALB/c mice; format: in vivo; conditions: mouse, in vivo, once daily for 15 days, read-out: Survivors (%)
Source text: (§1) Toxicity of 1-5 to uninfected BALB/c mice.
(§2) ^a Treatments were given once daily for 15 days.
(§3) ^b Difference in weight (in grams) between day 0 and day 16.

uninfected BALB/c mice = assay: Toxicity to uninfected BALB/c mice; format: in vivo; conditions: for Kidney Damage (%) / Survivors/Total: once daily for 15 days; for Weight Change: between day 0 and day 16
Source text: as §1, §2, §3

HCMV, Strain D-16 = assay: Antiviral activity (plaque reduction) vs. HCMV, Strain D-16 in MRC-5 cells; format: cell-based, human cytomegalovirus (HCMV); conditions: for TI (therapeutic index, ratio of the median cytotoxic dose to the median effective dose): CD50/ED50, 4320 min; for inhibition at 1 µg/mL / inhibition at 3.2 µg/mL / inhibition at 10 µg/mL / inhibition at 32 µg/mL / inhibition at 100 µg/mL / inhibition at 316 µg/mL: Human betaherpesvirus 5, MRC5, 72 h, read-out: % Reduction (plaques); for EC50: Human betaherpesvirus 5, MRC5, 72 hours, MRC-5 cells, read-out: ED50 (median effective antiviral dose)
in vitro = format: cell-based; conditions: human, mrc-5 cells
Protocol: The herpes strain employed was Strain D-16 of HCMV. Continuous passaged MRC-5 cells obtained from the American Type Culture Collection (Bethesda, Md.) were used for testing, with growth medium consisting of Minimum Essential Medium (MEM) supplemented with 0.1% NaHCO3 and […] gentamicin.
To a 96-well microtiter plate containing an established 24-hour monolayer of cells from which the medium had been decanted was added 0.1 mL of varying (one-half log10) concentration of test compound, which incubated on the cell 15 minutes, after which 0.1 mL of virus in a concentration of 320 cell culture 50% infectious doses (CCID50)/0.1 mL was added. The plate was covered with plastic wrap and incubated at 37° C. The cells were examined microscopically after 72 hours. The ED50 (the median effective antiviral dose, i.e., that dose which is effective in 50% of the cells), CD50 (the median cytotoxic dose, i.e., that dose which produces cytotoxicity in 50% of the cells), and TI (the therapeutic index, meaning the ratio of the median cytotoxic dose to the median effective dose) were evaluated.

[2] = 5 mg/kg/day, once daily for 5 days
[3] = 10 mg/kg/day, once daily for 5 days
[4] = 20 mg/kg/day, once daily for 5 days
[5] = 40 mg/kg/day, once daily for 5 days
[6] = 40 mg/kg/day, once daily for 5 days starting 24 hours after virus challenge

| SMILES | Mean Day to Death (murine cytomegalovirus; [2]) | Survivors (%) (murine cytomegalovirus; [2]) | Survivors/Total (murine cytomegalovirus; [2]) | Mean Day to Death (murine cytomegalovirus; [3]) | Survivors (%) (murine cytomegalovirus; [3]) | Survivors/Total (murine cytomegalovirus; [3]) | Mean Day to Death (murine cytomegalovirus; [4]) | Survivors (%) (murine cytomegalovirus; [4]) | Survivors/Total (murine cytomegalovirus; [4]) | Mean Day to Death (murine cytomegalovirus; [5]) | Survivors (%) (murine cytomegalovirus; [5]) | Survivors/Total (murine cytomegalovirus; [6]) | Number of Plaques (HCMV, Strain D-16; 1 μg/mL) | Number of Plaques (HCMV, Strain D-16; 3.2 μg/mL) | Number of Plaques (HCMV, Strain D-16; 10 μg/mL) | Number of Plaques (HCMV, Strain D-16; 32 μg/mL) | Number of Plaques (HCMV, Strain D-16; 100 μg/mL) | Number of Plaques (HCMV, Strain D-16; 316 μg/mL) | TI (therapeutic index, ratio of the median cytotoxic dose to the median effective dose) (HCMV, Strain D-16) | inhibition at 1 µg/mL (HCMV, Strain D-16; 1 μg/mL) | also measured |
| --- | --- | --- | --- | --- | --- | --- | --- | --- | --- | --- | --- | --- | --- | --- | --- | --- | --- | --- | --- | --- | --- |
| Nc1ncc2ncn(CO[C@@H](CO)CCP(=O)(O)O)c2n1 [Compound 1-5, 2-Amino-9-[(R(-)-1-hydroxymethyl-3-phosphono)-1-propyloxymethyl]-9H-purine] | 9.6 ± 4.6 days | 50% | 5/10 | 10.0 ± 3.6 days | 70% | 7/10 | 11.5 ± 0.7 days | 80% | 8/10 | > 21 days | 100% | 10/10 | – | – | – | – | – | – | – | – | survival ([1]; 100 mg/kg/day): 100%; survival ([1]; 200 mg/kg/day): 100%; survival ([1]; 400 mg/kg/day): 100%; survival ([1]; 600 mg/kg/day): 100%; Kidney Damage (%) (uninfected BALB/c mice; 100 mg/kg/day): 0%; Survivors/Total (uninfected BALB/c mice; 100 mg/kg/day): 3/3; Weight Change (uninfected BALB/c mice; 100 mg/kg/day): +7.0 grams; Kidney Damage (%) (uninfected BALB/c mice; 200 mg/kg/day): 0%; Survivors/Total (uninfected BALB/c mice; 200 mg/kg/day): 3/3; Weight Change (uninfected BALB/c mice; 200 mg/kg/day): +7.8 grams; Kidney Damage (%) (uninfected BALB/c mice; 400 mg/kg/day): 0%; Survivors/Total (uninfected BALB/c mice; 400 mg/kg/day): 3/3; Weight Change (uninfected BALB/c mice; 400 mg/kg/day): +6.6 grams; Kidney Damage (%) (uninfected BALB/c mice; 600 mg/kg/day): 0%; Survivors/Total (uninfected BALB/c mice; 600 mg/kg/day): 3/3; Weight Change (uninfected BALB/c mice; 600 mg/kg/day): +4.5 grams |
| Nc1ncc2ncn(CO[C@@H]3CCP(=O)(O)OC3)c2n1 [Compound 1-6] | 6.4 ± 0.5 days | 0% | 0/10 | 7.4 ± 2.0 days | 0% | 0/10 | 6.1 ± 0.4 days | 30% | 3/10 | 8.3 ± 4.9 days | 40% | 4/10 | 51.0 | 56.0 | 33.0 | 6.5 | 0.0 | 0.0 | 73 | 37% | % Reduction (given as toxic) (HCMV, Strain D-16; 1000 μg/mL): toxic; Number of Plaques (given as toxic) (HCMV, Strain D-16; 1000 μg/mL): toxic; inhibition at 3.2 µg/mL (HCMV, Strain D-16; 3.2 μg/mL): 31%; inhibition at 10 µg/mL (HCMV, Strain D-16; 10 μg/mL): 59%; inhibition at 32 µg/mL (HCMV, Strain D-16; 32 μg/mL): 92%; inhibition at 100 µg/mL (HCMV, Strain D-16; 100 μg/mL): 100%; inhibition at 316 µg/mL (HCMV, Strain D-16; 316 μg/mL): 100%; EC50 (HCMV, Strain D-16): 6.7 µg/mL (≈ 22.4 µM); CC50 at 72 h (in vitro): 487 µg/mL (≈ 1630 µM) |
| Nc1nc2c(ncn2COC(CO)CO)c(=O)[nH]1 [DHPG, 9-[(1,3dihydroxy-2-propoxy)methyl] guanine, reference compound] | – | – | – | – | – | – | – | – | – | – | – | – | 69.0 | 57.0 | 24.5 | 2.0 | 0.0 | 0.0 | > 44 | 0% | inhibition at 3.2 µg/mL (HCMV, Strain D-16; 3.2 μg/mL): 0%; inhibition at 10 µg/mL (HCMV, Strain D-16; 10 μg/mL): 70%; inhibition at 32 µg/mL (HCMV, Strain D-16; 32 μg/mL): 98%; inhibition at 100 µg/mL (HCMV, Strain D-16; 100 μg/mL): 100%; inhibition at 316 µg/mL (HCMV, Strain D-16; 316 μg/mL): 100%; EC50 (HCMV, Strain D-16): 7.2 µg/mL (≈ 28.2 µM); CC50 at 72 h (in vitro): > 316 µg/mL |
